From paper PMC6891286, “Towards the Development of an In vivo Chemical Probe for Cyclin G Associated Kinase (GAK)” (Molecules, 2019)

Legend:
Assay in all cases: KINOMEscan
Type in all cases: binding
Details in all cases: 35 at 1 µM; read-out: % inhibition
INSRR = molecular target: T1, INSRR (Homo sapiens, UniProt P14616)
T1 construct: purchased Eurofins DiscoverX (KINOMEscan)
Description: (§1) KinomeScan Assay on 35 was performed as previously described at EuroFins DiscoverX (Fremont, CA, USA).

LYN = molecular target: T2, LYN (Homo sapiens, UniProt P07948)
T2 construct: purchased Eurofins DiscoverX (KINOMEscan)
Description: as §1

SRPK3 = molecular target: T3, SRPK3 (Homo sapiens, UniProt Q9UPE1)
T3 construct: purchased Eurofins DiscoverX (KINOMEscan)
Description: as §1

p38-gamma = molecular target: T4, p38-gamma (Homo sapiens, UniProt P53778)
T4 construct: purchased Eurofins DiscoverX (KINOMEscan)
Description: as §1

ERK1 = molecular target: T5, ERK1 (Homo sapiens, UniProt P27361)
T5 construct: purchased Eurofins DiscoverX (KINOMEscan)
Description: as §1

TRKB = molecular target: T6, TRKB (Homo sapiens, UniProt Q16620)
T6 construct: purchased Eurofins DiscoverX (KINOMEscan)
Description: as §1

WNK2 = molecular target: T7, WNK2 (Homo sapiens, UniProt Q9Y3S1)
T7 construct: purchased EuroFins DiscoverX (Fremont, CA, USA)
Description: as §1

ITK = molecular target: T8, ITK (Homo sapiens, UniProt Q08881)
T8 construct: purchased Eurofins DiscoverX (KINOMEscan)
Description: as §1

PRKD1 = molecular target: T9, PRKD1 (Homo sapiens, UniProt Q15139)
T9 construct: purchased Eurofins DiscoverX (KINOMEscan)
Description: as §1

RIOK2 = molecular target: T10, RIOK2 (Homo sapiens, UniProt Q9BVS4)
T10 construct: purchased Eurofins DiscoverX (KINOMEscan)
Description: as §1

DYRK1A = molecular target: T11, DYRK1A (Homo sapiens, UniProt Q13627)
T11 construct: purchased Eurofins DiscoverX (KINOMEscan)
Description: as §1

YSK1 = molecular target: T12, YSK1 (Homo sapiens, UniProt O00506)
T12 construct: purchased EuroFins DiscoverX (Fremont, CA, USA)
Description: as §1

MERTK = molecular target: T13, MERTK (Homo sapiens, UniProt Q12866)
T13 construct: purchased Eurofins DiscoverX (KINOMEscan)
Description: as §1

DMPK = molecular target: T14, DMPK (Homo sapiens, UniProt Q09013)
T14 construct: purchased Eurofins DiscoverX (KINOMEscan)
Description: as §1

PRKG1 = molecular target: T15, PRKG1 (Homo sapiens, UniProt Q13976)
T15 construct: purchased Eurofins DiscoverX (KINOMEscan)
Description: as §1

TRPM6 = molecular target: T16, TRPM6 (Homo sapiens, UniProt Q9BX84)
T16 construct: purchased Eurofins DiscoverX (KINOMEscan)
T16 sequence (Q9BX84 whole entry): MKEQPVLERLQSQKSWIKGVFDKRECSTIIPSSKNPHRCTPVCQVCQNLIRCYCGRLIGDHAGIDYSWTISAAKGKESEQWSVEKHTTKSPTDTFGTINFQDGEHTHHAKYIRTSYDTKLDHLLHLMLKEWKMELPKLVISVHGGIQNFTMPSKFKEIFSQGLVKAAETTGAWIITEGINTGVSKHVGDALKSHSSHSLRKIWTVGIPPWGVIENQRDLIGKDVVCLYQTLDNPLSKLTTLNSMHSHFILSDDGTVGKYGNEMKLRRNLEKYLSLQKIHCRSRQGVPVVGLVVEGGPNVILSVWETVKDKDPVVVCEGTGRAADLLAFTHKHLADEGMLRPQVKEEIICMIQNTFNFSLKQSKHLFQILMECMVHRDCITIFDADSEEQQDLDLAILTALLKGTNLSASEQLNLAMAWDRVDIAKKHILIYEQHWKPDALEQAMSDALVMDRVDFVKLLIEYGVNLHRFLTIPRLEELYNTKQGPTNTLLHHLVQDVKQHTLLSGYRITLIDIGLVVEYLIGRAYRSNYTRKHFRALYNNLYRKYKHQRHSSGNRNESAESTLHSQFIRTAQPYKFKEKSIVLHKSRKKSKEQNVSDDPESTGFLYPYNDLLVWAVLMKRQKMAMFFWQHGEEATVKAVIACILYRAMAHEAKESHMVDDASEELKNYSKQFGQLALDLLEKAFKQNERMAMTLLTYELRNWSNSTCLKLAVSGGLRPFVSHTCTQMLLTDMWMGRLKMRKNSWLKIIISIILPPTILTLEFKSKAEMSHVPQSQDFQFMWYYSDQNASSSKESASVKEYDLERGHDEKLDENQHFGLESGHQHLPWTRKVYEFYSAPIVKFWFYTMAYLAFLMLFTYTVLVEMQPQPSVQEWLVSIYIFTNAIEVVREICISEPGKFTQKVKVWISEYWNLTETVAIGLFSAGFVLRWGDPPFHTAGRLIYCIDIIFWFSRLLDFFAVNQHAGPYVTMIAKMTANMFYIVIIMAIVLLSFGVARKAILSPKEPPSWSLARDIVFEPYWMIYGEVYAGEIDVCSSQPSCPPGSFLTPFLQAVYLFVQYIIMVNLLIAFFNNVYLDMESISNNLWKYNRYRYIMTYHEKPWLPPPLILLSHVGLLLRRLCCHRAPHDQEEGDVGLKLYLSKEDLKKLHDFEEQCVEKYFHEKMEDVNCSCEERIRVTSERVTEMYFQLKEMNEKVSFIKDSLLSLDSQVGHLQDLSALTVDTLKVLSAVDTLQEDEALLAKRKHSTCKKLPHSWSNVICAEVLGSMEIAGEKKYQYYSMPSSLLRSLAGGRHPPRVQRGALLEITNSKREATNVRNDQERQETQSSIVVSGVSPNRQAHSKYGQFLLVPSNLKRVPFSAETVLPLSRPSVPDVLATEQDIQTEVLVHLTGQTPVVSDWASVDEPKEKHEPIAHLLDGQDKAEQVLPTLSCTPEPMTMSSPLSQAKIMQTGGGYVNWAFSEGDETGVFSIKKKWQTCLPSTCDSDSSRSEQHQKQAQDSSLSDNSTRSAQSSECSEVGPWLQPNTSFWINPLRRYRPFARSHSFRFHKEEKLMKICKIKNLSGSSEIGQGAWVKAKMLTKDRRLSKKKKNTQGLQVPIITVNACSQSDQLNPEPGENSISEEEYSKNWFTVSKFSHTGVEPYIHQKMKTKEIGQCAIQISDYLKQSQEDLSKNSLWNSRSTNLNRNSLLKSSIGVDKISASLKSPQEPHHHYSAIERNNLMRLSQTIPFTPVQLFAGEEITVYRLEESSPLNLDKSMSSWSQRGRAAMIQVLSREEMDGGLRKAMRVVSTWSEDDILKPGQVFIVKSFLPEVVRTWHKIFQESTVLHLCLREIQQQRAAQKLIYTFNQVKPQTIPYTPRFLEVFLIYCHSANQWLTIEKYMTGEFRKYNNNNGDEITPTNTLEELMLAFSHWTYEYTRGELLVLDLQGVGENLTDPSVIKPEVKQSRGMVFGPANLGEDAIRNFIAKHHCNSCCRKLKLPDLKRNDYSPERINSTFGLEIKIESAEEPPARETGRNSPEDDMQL
Description: as §1

NLK = molecular target: T17, NLK (Homo sapiens, UniProt Q9UBE8)
T17 construct: purchased Eurofins DiscoverX (KINOMEscan)
Description: as §1

MRCKA = molecular target: T18, MRCKA (Homo sapiens, UniProt Q5VT25)
T18 construct: purchased Eurofins DiscoverX (KINOMEscan)
Description: as §1

PIK3CA(E542K) = molecular target: T19, PIK3CA(E542K) (Homo sapiens, UniProt P42336, E542K)
T19 construct: purchased Eurofins DiscoverX (KINOMEscan)
T19 sequence (P42336 whole entry E542K): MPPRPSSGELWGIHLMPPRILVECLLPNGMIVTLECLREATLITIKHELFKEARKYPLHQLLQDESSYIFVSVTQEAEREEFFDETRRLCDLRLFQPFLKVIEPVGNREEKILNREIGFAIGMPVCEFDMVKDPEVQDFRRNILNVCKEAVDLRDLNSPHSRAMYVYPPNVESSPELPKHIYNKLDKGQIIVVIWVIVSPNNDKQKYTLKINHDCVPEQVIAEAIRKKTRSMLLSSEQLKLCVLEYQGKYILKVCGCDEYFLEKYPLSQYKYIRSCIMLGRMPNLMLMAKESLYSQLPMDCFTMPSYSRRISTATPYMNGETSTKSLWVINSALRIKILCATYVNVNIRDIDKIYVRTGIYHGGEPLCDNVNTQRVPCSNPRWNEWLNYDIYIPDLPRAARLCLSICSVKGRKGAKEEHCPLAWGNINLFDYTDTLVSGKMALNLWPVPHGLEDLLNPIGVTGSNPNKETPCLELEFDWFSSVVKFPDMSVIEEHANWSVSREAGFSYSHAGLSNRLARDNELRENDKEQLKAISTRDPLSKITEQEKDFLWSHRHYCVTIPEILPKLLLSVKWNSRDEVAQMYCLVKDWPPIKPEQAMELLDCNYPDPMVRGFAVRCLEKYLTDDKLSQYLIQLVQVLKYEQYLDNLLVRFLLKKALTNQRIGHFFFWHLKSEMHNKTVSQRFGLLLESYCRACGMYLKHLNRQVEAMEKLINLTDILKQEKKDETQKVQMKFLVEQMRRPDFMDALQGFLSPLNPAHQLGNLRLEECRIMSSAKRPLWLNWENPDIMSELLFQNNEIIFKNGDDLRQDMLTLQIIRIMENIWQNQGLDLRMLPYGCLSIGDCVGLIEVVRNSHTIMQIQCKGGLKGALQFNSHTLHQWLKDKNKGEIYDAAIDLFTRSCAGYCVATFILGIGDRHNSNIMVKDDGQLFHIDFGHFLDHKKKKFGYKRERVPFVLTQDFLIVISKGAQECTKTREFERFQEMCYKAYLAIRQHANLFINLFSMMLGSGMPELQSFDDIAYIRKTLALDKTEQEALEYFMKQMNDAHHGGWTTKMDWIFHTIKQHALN
Description: as §1

MST4 = molecular target: T20, MST4 (Homo sapiens, UniProt Q9P289)
T20 construct: purchased Eurofins DiscoverX (KINOMEscan)
Description: as §1

FGFR1 = molecular target: T21, FGFR1 (Homo sapiens, UniProt P11362)
T21 construct: purchased Eurofins DiscoverX (KINOMEscan)
Description: as §1

BMPR1B = molecular target: T22, BMPR1B (Homo sapiens, UniProt O00238)
T22 construct: purchased Eurofins DiscoverX (KINOMEscan)
Description: as §1

FLT3(D835H) = molecular target: T23, FLT3(D835H) (Homo sapiens, UniProt P36888, D835H)
T23 construct: purchased Eurofins DiscoverX (KINOMEscan)
Description: as §1

ACVRL1 = molecular target: T24, ACVRL1 (Homo sapiens, UniProt P37023)
T24 construct: purchased Eurofins DiscoverX (KINOMEscan)
Description: as §1

JNK1 = molecular target: T25, JNK1 (Homo sapiens, UniProt P45983)
T25 construct: purchased Eurofins DiscoverX (KINOMEscan)
Description: as §1

AXL = molecular target: T26, AXL (Homo sapiens, UniProt P30530)
T26 construct: purchased Eurofins DiscoverX (KINOMEscan)
Description: as §1

CLK3 = molecular target: T27, CLK3 (Homo sapiens, UniProt P49761)
T27 construct: purchased Eurofins DiscoverX (KINOMEscan)
Description: as §1

AURKA = molecular target: T28, AURKA (Homo sapiens, UniProt O14965)
T28 construct: purchased Eurofins DiscoverX (KINOMEscan)
Description: as §1

STK35 = molecular target: T29, STK35 (Homo sapiens, UniProt Q8TDR2)
T29 construct: purchased Eurofins DiscoverX (KINOMEscan)
Description: as §1

PIP5K1A = molecular target: T30, PIP5K1A (Homo sapiens, UniProt Q99755)
T30 construct: purchased Eurofins DiscoverX (KINOMEscan)
Description: as §1

TNNI3K = molecular target: T31, TNNI3K (Homo sapiens, UniProt Q59H18)
T31 construct: purchased Eurofins DiscoverX (KINOMEscan)
Description: as §1

EPHA7 = molecular target: T32, EPHA7 (Homo sapiens, UniProt Q15375)
T32 construct: purchased Eurofins DiscoverX (KINOMEscan)
T32 sequence (Q15375 28-998): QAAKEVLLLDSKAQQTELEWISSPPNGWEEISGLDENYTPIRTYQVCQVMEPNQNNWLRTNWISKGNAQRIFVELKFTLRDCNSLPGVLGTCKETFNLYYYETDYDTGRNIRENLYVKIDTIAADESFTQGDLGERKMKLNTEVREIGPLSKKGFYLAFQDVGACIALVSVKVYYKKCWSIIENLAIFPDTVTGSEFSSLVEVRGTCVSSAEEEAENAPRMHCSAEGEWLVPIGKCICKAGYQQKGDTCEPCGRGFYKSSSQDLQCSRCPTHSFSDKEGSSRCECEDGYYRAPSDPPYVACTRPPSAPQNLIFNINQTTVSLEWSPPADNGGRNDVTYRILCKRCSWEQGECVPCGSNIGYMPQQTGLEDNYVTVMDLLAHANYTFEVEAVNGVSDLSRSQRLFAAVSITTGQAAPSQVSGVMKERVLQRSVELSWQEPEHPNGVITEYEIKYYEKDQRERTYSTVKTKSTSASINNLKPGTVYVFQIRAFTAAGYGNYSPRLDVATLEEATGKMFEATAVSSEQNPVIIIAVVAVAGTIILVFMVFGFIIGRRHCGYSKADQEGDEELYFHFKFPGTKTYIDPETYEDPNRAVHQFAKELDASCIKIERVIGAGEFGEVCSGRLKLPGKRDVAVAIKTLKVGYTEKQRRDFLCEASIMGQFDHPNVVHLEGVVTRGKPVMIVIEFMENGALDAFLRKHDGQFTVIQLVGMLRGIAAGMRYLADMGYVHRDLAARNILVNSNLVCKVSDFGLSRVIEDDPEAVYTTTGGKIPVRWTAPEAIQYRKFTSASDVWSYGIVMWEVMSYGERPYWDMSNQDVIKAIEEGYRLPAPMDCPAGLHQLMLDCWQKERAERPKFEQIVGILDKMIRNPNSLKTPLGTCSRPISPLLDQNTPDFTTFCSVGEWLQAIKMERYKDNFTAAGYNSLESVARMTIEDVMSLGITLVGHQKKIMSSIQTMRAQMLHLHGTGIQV
Description: as §1

TTK = molecular target: T33, TTK (Homo sapiens, UniProt P33981)
T33 construct: purchased Eurofins DiscoverX (KINOMEscan)
Description: as §1

TAK1 = molecular target: T34, TAK1 (Homo sapiens, UniProt O43318)
T34 construct: purchased Eurofins DiscoverX (KINOMEscan)
Description: as §1

[1] = molecular target: T35, JAK2(JH1domain-catalytic) (Homo sapiens, UniProt O60674)
T35 construct: JAK2(JH1domain-catalytic); purchased Eurofins DiscoverX (KINOMEscan)
T35 sequence (O60674 840-1132 limits assumed): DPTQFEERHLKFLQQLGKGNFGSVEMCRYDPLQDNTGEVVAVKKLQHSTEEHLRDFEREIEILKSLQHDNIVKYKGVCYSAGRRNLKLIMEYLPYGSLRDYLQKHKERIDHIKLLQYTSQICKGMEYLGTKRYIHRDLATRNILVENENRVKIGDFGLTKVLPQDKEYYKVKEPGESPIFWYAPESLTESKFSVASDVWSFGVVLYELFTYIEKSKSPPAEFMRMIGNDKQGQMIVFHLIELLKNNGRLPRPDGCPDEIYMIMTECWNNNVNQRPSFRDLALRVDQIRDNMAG
Description: as §1

MST1R = molecular target: T36, MST1R (Homo sapiens, UniProt Q04912)
T36 construct: purchased Eurofins DiscoverX (KINOMEscan)
Description: as §1

FLT1 = molecular target: T37, FLT1 (Homo sapiens, UniProt P17948)
T37 construct: purchased Eurofins DiscoverX (KINOMEscan)
Description: as §1

MET(M1250T) = molecular target: T38, MET(M1250T) (Homo sapiens, UniProt P08581, M1250T)
T38 construct: purchased Eurofins DiscoverX (KINOMEscan)
Description: as §1

PIP5K2C = molecular target: T39, PIP5K2C (Homo sapiens, UniProt Q8TBX8)
T39 construct: purchased Eurofins DiscoverX (KINOMEscan)
Description: as §1

ACVR1 = molecular target: T40, ACVR1 (Homo sapiens, UniProt Q04771)
T40 construct: purchased Eurofins DiscoverX (KINOMEscan)
T40 sequence (Q04771 21-509): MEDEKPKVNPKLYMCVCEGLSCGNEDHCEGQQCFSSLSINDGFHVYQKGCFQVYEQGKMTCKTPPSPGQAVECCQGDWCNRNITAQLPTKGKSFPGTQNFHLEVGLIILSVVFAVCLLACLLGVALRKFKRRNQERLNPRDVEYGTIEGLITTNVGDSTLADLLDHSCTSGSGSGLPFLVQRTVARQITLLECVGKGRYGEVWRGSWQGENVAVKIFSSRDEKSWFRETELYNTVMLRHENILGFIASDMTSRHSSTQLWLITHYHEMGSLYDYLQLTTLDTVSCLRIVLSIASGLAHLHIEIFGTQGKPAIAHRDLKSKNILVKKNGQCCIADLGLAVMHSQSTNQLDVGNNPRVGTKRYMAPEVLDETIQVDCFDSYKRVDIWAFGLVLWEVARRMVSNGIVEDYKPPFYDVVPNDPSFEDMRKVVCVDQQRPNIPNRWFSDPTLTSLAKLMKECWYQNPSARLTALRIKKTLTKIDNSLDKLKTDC
Description: as §1

MAP3K15 = molecular target: T41, MAP3K15 (Homo sapiens, UniProt Q6ZN16)
T41 construct: purchased Eurofins DiscoverX (KINOMEscan)
Description: as §1

PIK3CB = molecular target: T42, PIK3CB (Homo sapiens, UniProt P42338)
T42 construct: purchased Eurofins DiscoverX (KINOMEscan)
Description: as §1

MEK3 = molecular target: T43, MEK3 (Homo sapiens, UniProt P46734)
T43 construct: purchased Eurofins DiscoverX (KINOMEscan)
Description: as §1

Measured: activity at 1 µM

Brc1ccc2nccc(Nc3ccc4cn[nH]c4c3)c2c1 [Compound 35, 6-Bromo-N-(1H-indazol-6-yl)quinolin-4-amine]
98%: [1] | MAP3K15
91%: BMPR1B
97%: ACVR1
95%: PIP5K2C
77%: DYRK1A
85%: TRKB | MERTK
94%: p38-gamma | FLT3(D835H) | PIK3CB
83%: JNK1
86%: MEK3
100%: all other assays above
